Activity data for one molecule are collected here from ChEMBL document CHEMBL5252631, “A pharmacophore-based approach to demonstrating the scope of alcohol dehydrogenases” (Bioorg Med Chem, 2023).

Experiment [1] in a line: Substrate activity at ADH19 (unknown origin) assessed as specific enzyme activity using NADPH as cofactor at 2.5 to 10 mM measured for 30 mins in presence of Tris HCL buffer by UV-Vis spectroscopy analysis. Conditions: Homo sapiens, dose 2.5-10 mM.
Experiment [2] in a line: Substrate activity at ADH101 (unknown origin) assessed as specific enzyme activity using NADH as cofactor at 2.5 to 10 mM measured for 30 mins in presence of Tris HCL buffer by UV-Vis spectroscopy analysis. Conditions: dose 2.5-10 mM.
Experiment [3] in a line: Substrate activity at ADH150 (unknown origin) assessed as specific enzyme activity using NADPH as cofactor at 2.5 to 10 mM measured for 30 mins in presence of Tris HCL buffer by UV-Vis spectroscopy analysis. Conditions: Homo sapiens, dose 2.5-10 mM.
Experiment [4] in a line: Substrate activity at ADH20 (unknown origin) assessed as specific enzyme activity using NADPH as cofactor at 2.5 to 10 mM measured for 30 mins in presence of Tris HCL buffer by UV-Vis spectroscopy analysis. Particulars: Homo sapiens, dose 2.5-10 mM.
A short description of experiment [5]: Substrate activity at ADH105 (unknown origin) assessed as specific enzyme activity using NADH as cofactor at 2.5 to 10 mM measured for 30 mins in presence of 20% hexane-Tris HCL buffer by UV-Vis spectroscopy analysis. Particulars: dose 2.5-10 mM.
Experiment [6] is described as follows: Substrate activity at ADH105 (unknown origin) assessed as specific enzyme activity using NADH as cofactor at 2.5 to 10 mM measured for 30 mins in presence of Tris HCL buffer by UV-Vis spectroscopy analysis. Particulars: Homo sapiens, dose 2.5-10 mM.
Experiment [7] in a line: Substrate activity at ADH61 (unknown origin) assessed as specific enzyme activity using NADPH as cofactor at 2.5 to 10 mM measured for 30 mins in presence of Tris HCL buffer by UV-Vis spectroscopy analysis. Particulars: Homo sapiens, dose 2.5-10 mM.

As for `COc1ccc2c(c1)CCCC2=O`, the Activity stood at 14.3 nmol/min/mg in experiment [1]; 6.9 nmol/min/mg in experiment [2]; 7.83 nmol/min/mg in experiment [3]; 31.3 nmol/min/mg in experiment [4]; 36 nmol/min/mg in experiment [5]; 9 nmol/min/mg in experiment [6]. In experiment [7], the Activity came out at 56.4 nmol/min/mg.
